Experimental data: US20190111137A1, “METHODS FOR ANTAGONISTS OF A NON-SELECTIVE CATION CHANNEL IN NEURAL CELLS” (University of Maryland, Baltimore, priority 2007, published 2019)
“Also recorded” adds a separate entry of the source. Where two headings read alike, the source gives them in different places. Values belong to the compound of their own block, whether it stands above or below them.

Experiments:
[1] = test system: permanent middle cerebral artery occlusion (MCAO) model; settings: cited from earlier work
temporary MCAO model = settings: cited from earlier work
NCCa-ATP channel [2] = biological target: T1, NCCa-ATP channel (Rattus norvegicus, UniProt Q09429+Q9ESQ5); assay: Patch clamp of NCCa-ATP channel in freshly isolated native reactive astrocytes; type: cell-based; settings: for EC50: read-out: [ATP]1 EC50
T1 construct: endogenous in cells; host or cells: freshly isolated native reactive astrocytes from the hypoxic gliotic capsule
Procedure: (§1) PATCH CLAMP. […] In general, recordings are carried out using a Cs^+ rich solution, to preclude recording activity from any K^+ channel including KATP channel.

NCCa-ATP channel [3] = biological target: T1, NCCa-ATP channel; settings: cited from earlier work; for channel opening in the presence of ATP: K+ channel openers
TRPM4 channel = settings: cited from earlier work
NCCa-ATP channel [4] = biological target: T2, NCCa-ATP channel (Mus musculus, UniProt B2RUS7+Q7TN37); assay: Patch clamp of bEnd.3 cells exposed to TNFα, ATP depleted with Na azide plus 2-DG; type: cell-based, murine; settings: TNFα-treated bEnd.3 cells; for block of single channel activity (inside-out patch): Cs+ as the only permeant cation
T2 construct: exposure to TNFα causes expression of a new channel that is not present before exposure to TNFα; host or cells: bEnd.3 cells exposed to TNFα
Procedure: (§2) (iii) Pharmacological block of SUR1 and TRPM4/patch clamp.
(§3) Patch clamp was performed using a nystatin-perforated patch technique to maintain the metabolic integrity of the cells.
(§4) Single channel recordings were performed using inside-out patches, with Cs^+ as the only permeant cation.
(§5) Apart from direct application of PIP2 (FIG. 24A), PIP2 levels can be augmented by inhibiting spontaneously active PLC.
as §1

[5] = test system: rat model of contusion SCI; assay: Rat model of unilateral cervical spinal cord injury (SCI); type: in vivo; settings: for neurobehavioral function (inclined plane, rearing) / progressive hemorrhagic necrosis / progressive hemorrhage: post-SCI
[6] = biological target: receptor-mediated Ca^2+ entry; settings: cited from earlier work
human TRP3 = biological target: T3, human TRP3 (Homo sapiens, UniProt Q13507); settings: high concentrations; cited from earlier work
T3 construct: expressed in transfected cells
T3 sequence (Q13507 1-848 isoform Q13507-3): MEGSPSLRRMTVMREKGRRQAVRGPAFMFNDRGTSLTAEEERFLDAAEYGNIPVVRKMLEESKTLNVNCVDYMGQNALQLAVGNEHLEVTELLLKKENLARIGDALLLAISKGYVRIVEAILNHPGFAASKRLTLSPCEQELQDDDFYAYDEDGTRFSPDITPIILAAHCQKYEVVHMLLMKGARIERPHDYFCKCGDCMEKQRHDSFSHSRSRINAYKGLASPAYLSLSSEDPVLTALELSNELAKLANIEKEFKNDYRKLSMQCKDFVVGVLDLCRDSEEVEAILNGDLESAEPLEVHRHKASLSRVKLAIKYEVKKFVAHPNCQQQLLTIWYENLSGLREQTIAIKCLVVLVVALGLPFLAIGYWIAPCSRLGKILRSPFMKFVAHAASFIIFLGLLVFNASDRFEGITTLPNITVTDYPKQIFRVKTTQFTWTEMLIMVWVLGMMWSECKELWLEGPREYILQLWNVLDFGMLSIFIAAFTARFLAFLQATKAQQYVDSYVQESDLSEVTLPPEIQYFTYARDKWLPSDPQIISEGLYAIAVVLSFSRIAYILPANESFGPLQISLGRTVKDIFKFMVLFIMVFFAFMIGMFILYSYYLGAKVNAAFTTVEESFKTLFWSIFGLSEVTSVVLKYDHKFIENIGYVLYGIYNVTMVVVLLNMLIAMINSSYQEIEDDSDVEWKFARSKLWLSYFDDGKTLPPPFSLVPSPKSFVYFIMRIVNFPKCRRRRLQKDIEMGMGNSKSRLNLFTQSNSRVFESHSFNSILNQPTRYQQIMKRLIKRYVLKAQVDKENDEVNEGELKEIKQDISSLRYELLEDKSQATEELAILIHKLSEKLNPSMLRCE

[7] = test system: endothelial cells of the BBB; settings: cited from earlier work
NCCa-ATP channel [8] = assay: Patch clamp of bEnd.3 cells exposed to TNFα, ATP depleted with Na azide plus 2-DG; type: cell-based, murine
Procedure: as §2, §3, §4, §5, §1

[9] = test system: global cerebral ischemia in gerbils; settings: in vivo; cited from earlier work
reactive astrocytes = settings: without ATP depletion; cited from earlier work
TRPM2 = biological target: T4, TRPM2 (Homo sapiens, UniProt O94759); settings: activated by extracellular H2O2; cited from earlier work
T4 construct: host or cells: Chinese hamster ovary cells

[10] = test system: isolated retina of chick embryo; settings: cited from earlier work
[11] = test system: rodent model of transient focal ischemia; settings: pre- or post-ischemic administration; cited from earlier work
[12] = test system: rat model of contusion SCI; settings: as reported (Simard et al., 2007); cited from earlier work
[13] = test system: rat model of ischemic stroke; settings: given 30 min after initiation of permanent MCAO; cited from earlier work
[14] = after 6 h of vascular occlusion
[15] = Membrane Preparation derived from freshly isolated native reactive astrocytes

T1 sequence (Q09429 whole entry): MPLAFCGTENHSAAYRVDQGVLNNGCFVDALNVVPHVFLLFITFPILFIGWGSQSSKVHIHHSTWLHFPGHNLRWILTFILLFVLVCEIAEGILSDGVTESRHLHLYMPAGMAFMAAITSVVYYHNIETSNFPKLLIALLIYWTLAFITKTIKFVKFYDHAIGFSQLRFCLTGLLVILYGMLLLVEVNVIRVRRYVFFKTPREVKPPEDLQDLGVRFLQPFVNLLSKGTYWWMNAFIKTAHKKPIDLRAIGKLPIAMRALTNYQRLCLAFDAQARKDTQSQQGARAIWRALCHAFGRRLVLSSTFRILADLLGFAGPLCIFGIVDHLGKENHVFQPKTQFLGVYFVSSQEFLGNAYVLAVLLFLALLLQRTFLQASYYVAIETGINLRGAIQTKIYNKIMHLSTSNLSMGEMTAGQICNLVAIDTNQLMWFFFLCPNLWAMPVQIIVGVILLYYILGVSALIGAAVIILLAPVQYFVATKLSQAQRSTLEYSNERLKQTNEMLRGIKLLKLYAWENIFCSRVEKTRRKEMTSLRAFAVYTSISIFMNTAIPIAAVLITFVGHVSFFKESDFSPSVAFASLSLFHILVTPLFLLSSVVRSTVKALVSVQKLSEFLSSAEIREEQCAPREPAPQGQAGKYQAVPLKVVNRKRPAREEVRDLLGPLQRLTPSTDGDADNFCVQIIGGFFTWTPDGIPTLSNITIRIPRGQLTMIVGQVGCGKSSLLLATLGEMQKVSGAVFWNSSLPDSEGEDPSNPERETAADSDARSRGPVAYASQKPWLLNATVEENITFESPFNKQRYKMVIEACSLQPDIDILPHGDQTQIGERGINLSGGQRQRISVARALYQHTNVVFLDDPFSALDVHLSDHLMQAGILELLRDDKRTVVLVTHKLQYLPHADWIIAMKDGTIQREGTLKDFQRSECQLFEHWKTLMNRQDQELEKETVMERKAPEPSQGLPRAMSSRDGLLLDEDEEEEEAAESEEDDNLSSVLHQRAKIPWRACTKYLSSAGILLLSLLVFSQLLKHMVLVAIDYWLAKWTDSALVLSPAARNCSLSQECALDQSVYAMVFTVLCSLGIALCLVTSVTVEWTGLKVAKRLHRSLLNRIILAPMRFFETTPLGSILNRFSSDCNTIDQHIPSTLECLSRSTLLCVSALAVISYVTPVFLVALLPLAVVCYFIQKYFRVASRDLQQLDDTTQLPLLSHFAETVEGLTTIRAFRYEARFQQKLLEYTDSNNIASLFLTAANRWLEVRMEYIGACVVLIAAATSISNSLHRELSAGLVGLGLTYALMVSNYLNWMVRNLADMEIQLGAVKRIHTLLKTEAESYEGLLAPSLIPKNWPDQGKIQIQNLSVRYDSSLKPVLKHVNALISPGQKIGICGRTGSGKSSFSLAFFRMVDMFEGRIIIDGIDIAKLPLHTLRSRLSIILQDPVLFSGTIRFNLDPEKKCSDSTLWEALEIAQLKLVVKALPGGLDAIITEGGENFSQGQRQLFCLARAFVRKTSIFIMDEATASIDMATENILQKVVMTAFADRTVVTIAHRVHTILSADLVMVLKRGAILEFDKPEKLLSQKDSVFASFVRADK
T1 sequence (Q9ESQ5 whole entry): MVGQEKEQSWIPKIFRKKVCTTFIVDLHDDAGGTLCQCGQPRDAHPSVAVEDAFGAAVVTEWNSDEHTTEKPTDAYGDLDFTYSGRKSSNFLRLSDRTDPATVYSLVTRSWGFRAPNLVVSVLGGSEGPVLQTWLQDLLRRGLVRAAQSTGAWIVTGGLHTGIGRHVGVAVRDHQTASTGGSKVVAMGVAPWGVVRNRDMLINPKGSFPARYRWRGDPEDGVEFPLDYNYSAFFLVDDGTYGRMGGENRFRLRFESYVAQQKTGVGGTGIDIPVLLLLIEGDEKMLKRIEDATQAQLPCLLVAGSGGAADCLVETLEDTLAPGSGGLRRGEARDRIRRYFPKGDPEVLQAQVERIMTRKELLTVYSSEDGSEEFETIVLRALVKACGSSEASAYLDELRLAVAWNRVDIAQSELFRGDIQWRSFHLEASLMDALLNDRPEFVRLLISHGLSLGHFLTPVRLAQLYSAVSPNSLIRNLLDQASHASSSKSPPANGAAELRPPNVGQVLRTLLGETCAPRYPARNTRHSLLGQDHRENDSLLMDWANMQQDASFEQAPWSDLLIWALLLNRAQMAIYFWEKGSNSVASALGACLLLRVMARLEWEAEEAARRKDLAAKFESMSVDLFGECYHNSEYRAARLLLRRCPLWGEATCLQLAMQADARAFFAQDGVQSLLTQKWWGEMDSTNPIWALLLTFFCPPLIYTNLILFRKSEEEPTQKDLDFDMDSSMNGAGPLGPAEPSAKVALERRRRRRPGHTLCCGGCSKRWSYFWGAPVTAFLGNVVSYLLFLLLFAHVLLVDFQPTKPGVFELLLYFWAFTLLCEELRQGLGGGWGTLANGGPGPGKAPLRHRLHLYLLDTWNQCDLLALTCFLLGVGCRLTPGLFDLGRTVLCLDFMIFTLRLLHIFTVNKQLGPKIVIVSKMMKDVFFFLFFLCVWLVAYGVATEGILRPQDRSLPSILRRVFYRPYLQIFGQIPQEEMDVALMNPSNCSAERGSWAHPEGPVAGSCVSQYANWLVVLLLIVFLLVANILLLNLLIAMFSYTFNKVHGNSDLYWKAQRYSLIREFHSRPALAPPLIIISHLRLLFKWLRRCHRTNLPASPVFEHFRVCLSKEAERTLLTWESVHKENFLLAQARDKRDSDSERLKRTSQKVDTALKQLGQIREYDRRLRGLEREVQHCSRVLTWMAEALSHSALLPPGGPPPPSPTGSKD
T4 sequence (O94759 whole entry): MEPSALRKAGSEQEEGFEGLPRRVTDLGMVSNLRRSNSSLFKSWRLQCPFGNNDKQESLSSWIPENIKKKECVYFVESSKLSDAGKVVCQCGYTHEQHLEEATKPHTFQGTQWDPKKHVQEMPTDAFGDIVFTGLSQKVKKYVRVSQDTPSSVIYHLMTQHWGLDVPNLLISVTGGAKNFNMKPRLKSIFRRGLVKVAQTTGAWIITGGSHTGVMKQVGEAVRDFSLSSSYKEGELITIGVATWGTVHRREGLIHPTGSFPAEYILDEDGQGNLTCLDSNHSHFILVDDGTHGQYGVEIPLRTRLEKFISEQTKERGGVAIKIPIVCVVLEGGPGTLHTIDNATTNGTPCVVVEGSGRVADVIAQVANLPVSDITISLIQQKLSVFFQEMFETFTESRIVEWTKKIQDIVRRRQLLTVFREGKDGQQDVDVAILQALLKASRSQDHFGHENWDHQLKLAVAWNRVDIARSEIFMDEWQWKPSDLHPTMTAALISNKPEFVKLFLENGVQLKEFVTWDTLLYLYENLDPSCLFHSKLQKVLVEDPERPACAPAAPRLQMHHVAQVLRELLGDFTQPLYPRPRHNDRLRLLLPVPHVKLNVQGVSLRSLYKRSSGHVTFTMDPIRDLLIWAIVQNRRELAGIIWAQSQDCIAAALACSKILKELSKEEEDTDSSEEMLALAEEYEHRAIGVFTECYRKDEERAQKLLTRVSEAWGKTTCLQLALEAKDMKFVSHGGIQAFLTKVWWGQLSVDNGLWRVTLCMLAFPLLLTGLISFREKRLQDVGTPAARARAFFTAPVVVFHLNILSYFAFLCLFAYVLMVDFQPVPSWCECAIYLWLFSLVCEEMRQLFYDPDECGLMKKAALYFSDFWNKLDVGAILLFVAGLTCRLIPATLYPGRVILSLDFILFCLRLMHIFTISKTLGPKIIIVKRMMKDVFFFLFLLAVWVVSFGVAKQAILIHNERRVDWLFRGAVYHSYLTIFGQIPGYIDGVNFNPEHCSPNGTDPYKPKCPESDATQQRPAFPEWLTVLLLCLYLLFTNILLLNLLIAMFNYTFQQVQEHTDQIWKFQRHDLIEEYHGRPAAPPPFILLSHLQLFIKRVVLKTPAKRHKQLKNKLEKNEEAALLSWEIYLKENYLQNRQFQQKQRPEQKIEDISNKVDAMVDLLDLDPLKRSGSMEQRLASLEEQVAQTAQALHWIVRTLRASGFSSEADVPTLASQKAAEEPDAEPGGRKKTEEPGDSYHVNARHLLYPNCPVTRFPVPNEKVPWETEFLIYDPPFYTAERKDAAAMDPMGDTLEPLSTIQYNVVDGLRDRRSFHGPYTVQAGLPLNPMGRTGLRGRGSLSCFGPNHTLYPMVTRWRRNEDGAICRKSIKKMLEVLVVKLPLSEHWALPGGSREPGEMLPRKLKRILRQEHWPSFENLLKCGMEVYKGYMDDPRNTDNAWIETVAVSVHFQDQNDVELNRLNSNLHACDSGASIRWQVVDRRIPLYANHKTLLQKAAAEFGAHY

Compound: COc1cc2c(cc1OC)C(C(C(=O)N(CCc1ccc(OC)c(OC)c1OC)CCc1ccc(OC)c(OC)c1OC)c1ccccc1)=NCC2 (racemic) [pinokalant, (R,S)-(3,4-dihydro-6,7-dimethoxy-isoquinoline-1-yl)-2-phenyl-N,N-di[2-(2,3,4-trimethoxyphenyl)ethyl]-acetamide]
blood flow [1, 14]: significantly higher | volume of ATP-depleted and morphologically injured tissue (infarct core), smaller [1, 14]: 60-70% | decrease of ADC lesion volume ([1]; during the initial 6 h of vascular occlusion): approximately 20% | size of ischemic penumbra ([1]; volume of severely acidic tissue): does not reduce | DWI-derived infarct volume (temporary MCAO model; 4 h after MCAO): significantly smaller | neurological scores (temporary MCAO model; 24 h): significantly better | TTC-derived infarct volume (temporary MCAO model; postmortem): significantly attenuated | size of the ischemic core (temporary MCAO model; rat, in vivo): significantly smaller

Compound: Nc1ncnc2c1ncn2[C@@H]1O[C@H](COP(=O)(O)OP(=O)(O)O)[C@@H](O)[C@H]1O [ADP]
ADP AMP channel effect (NCCa-ATP channel [2]; [15]): No channel | ADP AMP channel effect (NCCa-ATP channel [2]; Reactive Astrocytes): No channel | ADP, AMP block (NCCa-ATP channel [3]; SUR1-regulated NCCa-ATP): no | effect of ADP or AMP on channel opening (NCCa-ATP channel [3]): unaffected | ADP, AMP block (TRPM4 channel): yes

Compound: Nc1ncnc2c1ncn2[C@@H]1O[C@H](COP(=O)(O)O)[C@@H](O)[C@H]1O [AMP]
ADP AMP channel effect (NCCa-ATP channel [2]; [15]): No channel | ADP AMP channel effect (NCCa-ATP channel [2]; Reactive Astrocytes): No channel | ADP, AMP block (NCCa-ATP channel [3]; SUR1-regulated NCCa-ATP): no | effect of ADP or AMP on channel opening (NCCa-ATP channel [3]): unaffected | ADP, AMP block (TRPM4 channel): yes

EC50 (NCCa-ATP channel [2]; [15]): 790 nM | EC50 (NCCa-ATP channel [2]; Reactive Astrocytes): 790 nM | block of single channel activity (inside-out patch) (NCCa-ATP channel [4]): reversibly blocked
Compound: Nc1ncnc2c1ncn2[C@@H]1O[C@H](COP(=O)(O)OP(=O)(O)OP(=O)(O)O)[C@@H](O)[C@H]1O [ATP]
EC50 (NCCa-ATP channel [3]; SUR1-regulated NCCa-ATP, read-out: ATP block (EC50)): 800 nM | EC50 (NCCa-ATP channel [3]; read-out: Channel opening blocked by ATP (EC50)): 790 nM | EC50 (TRPM4 channel; read-out: ATP block (EC50)): 130 to 1700 nM

Activation [Ca^2+] (NCCa-ATP channel [2]; [15]): <1.0 µM | Activation [Ca^2+] (NCCa-ATP channel [2]; Reactive Astrocytes): <1.0 µM
Compound: [Ca+2] [Ca^2+]
EC50 (NCCa-ATP channel [3]; SUR1-regulated NCCa-ATP, read-out: Ca^2+ activation (EC50)): 120 to 1500 nM | EC50 (TRPM4 channel; read-out: Ca^2+ activation (EC50)): 1300 nM

Compound: S=C(S)N1CCCC1 [PDTC, pyrrolidine dithiocarbamate]
TRPM4 expression in cord (immunolabeling) ([5]; 24 h post-SCI): significantly decreased; also recorded: reduces TRPM4 expression | neurobehavioral function (inclined plane, rearing) [5]: improved functional outcome

Compound: COc1ccc(CCCOC(Cn2ccnc2)c2ccc(OC)cc2)cc1.Cl (stereo not drawn) [SKF 96365, 1-(beta[3-(4-methoxy-phenyl)propoxy]-4-methoxyphenethyl)-1H-imidazole hydrochloride]
IC50 [6]: ~10000 nM | increased Ca^2+ entry in TRP3-expressing cells (human TRP3): blocked | expression of the tight junction protein occludin ([7]; after hypoxic/aglycemic stress): increased | hypoxia-induced BBB disruption ([7]; normoglycemia): protective

Compound: COc1ccc2c(c1)CC[C@@H]1[C@@H]2CC[C@]2(C)[C@@H](NCCCCCCN3C(=O)C=CC3=O)CC[C@@H]12 [U73122]
channel activation by inhibiting phospholipase C (whole cell) (NCCa-ATP channel [8]; TNFα-stimulated bEnd.3 cells): activated an ohmic current; also recorded: channel activation | channel activation by inhibiting phospholipase C (whole cell) (NCCa-ATP channel [8]; control bEnd.3 cells): without effect

Compound: COc1cc(CNC(=O)CCCC/C=C/C(C)C)ccc1O [capsaicin]
electroencephalographic changes, hyperlocomotion and memory impairment induced by global ischemia [9]: antagonize | survival of pyramidal cells in the CA1 subfield of the hippocampus [9]: progressive survival

Compound: Oc1cc2c(cc1O)CN(C(=S)NCCc1ccc(Cl)cc1)CCC2 [capsazepine]
effect on rimonabant-induced and capsaicin-induced neuroprotective effects [9]: reversed

Compound: CC1(C)Oc2ccc(C#N)cc2C(N2CCCC2=O)C1O (centres unmarked) [cromakalin]
channel opening in the presence of ATP (NCCa-ATP channel [3]): not

Compound: CC1=NS(=O)(=O)c2cc(Cl)ccc2N1 [diazoxide]
channel opening in the presence of ATP (NCCa-ATP channel [3]): increased | bleb formation (reactive astrocytes): reproduced

block of current activated by ATP depletion (whole cell) (NCCa-ATP channel [4]; 100 μM flufenamic acid): blocked | block of single channel activity (inside-out patch) (NCCa-ATP channel [4]): blocked | block of current activated by ATP depletion (whole cell) (NCCa-ATP channel [4]; listed as FFA): blocked
Compound: O=C(O)c1ccccc1Nc1cccc(C(F)(F)F)c1 [flufenamic acid]
block of current activated by ATP depletion (whole cell) (NCCa-ATP channel [4]): blocked; also recorded: also blocks this current | amount of blood in cord homogenates ([5]; 24-hr post-SCI, post-treatment): significant decrease in blood | hemorrhage in cords (surface and sections) ([5]; 24 h post-SCI): less hemorrhage | neurobehavioral function (inclined plane, rearing) [5]: improves neurological function; also recorded: improved | progressive hemorrhagic necrosis / progressive hemorrhage [5]: reduces progressive hemorrhagic necrosis; also recorded: blocked | neurobehavioral function (inclined plane, rearing) ([5]; listed as FFA): improve neurobehavioral function; also recorded: significantly better performance than controls | progressive hemorrhagic necrosis / progressive hemorrhage ([5]; listed as FFA): prevented | capillary integrity (vimentin immunolabeling) ([5]; region of injury post-SCI, listed as FFA): elongated capillaries; also recorded: elongated and more intact | inhibition of TRPM2 (TRPM2): inhibits | protection of the retina against ischemic or excitotoxic insult [10]: protected

Compound: Cc1ccc(Cl)c(Nc2ccccc2C(=O)O)c1Cl [meclofenamic acid]
protection of the retina against ischemic or excitotoxic insult [10]: protected

Compound: Cc1cccc(Nc2ccccc2C(=O)O)c1C [mefenamic acid]
protection of the retina against ischemic or excitotoxic insult [10]: protected | neuroprotection (necrosis in cortex and subcortical structures) [11]: no neuroprotection

Compound: CC(N/C(=N\C#N)Nc1ccncc1)C(C)(C)C (centres unmarked) [pinacidil]
channel opening in the presence of ATP (NCCa-ATP channel [3]): not

Compound: CCOc1cc(CC(=O)N[C@@H](CC(C)C)c2ccccc2N2CCCCC2)ccc1C(=O)O [repaglinide]
neurological function [12]: improves neurological function | progressive hemorrhagic necrosis [12]: reduces progressive hemorrhagic necrosis

Compound: Cc1c(C(=O)NN2CCCCC2)nn(-c2ccc(Cl)cc2Cl)c1-c1ccc(Cl)cc1 [rimonabant]
reduction of infarct volume [13]: ~40% | electroencephalographic changes, hyperlocomotion and memory impairment induced by global ischemia [9]: antagonize | survival of pyramidal cells in the CA1 subfield of the hippocampus [9]: progressive survival

Compound: CCCCNC(=O)NS(=O)(=O)c1ccc(C)cc1 [tolbutamide]
EC50 (NCCa-ATP channel [3]; pH 7.4, read-out: block of NCCa-ATP channel opening (EC50)): 16100 nM

PIP2 activation (NCCa-ATP channel [2]; SUR1-regulated NCCa-ATP, unpublished observations): yes*
Compound: PIP2
channel activity after addition of PIP2 (NCCa-ATP channel [2]; inside-out patch, high concentration of ATP (10 mM) on the cytoplasmic side): robust channel activation; also recorded: release of inhibition | PIP2 activation (TRPM4 channel): yes
